This passage reports melting point and IC50 results from patent publication US7601726B2, “Substituted pyrazolo[3,4-d]pyrimidines as p38 MAP kinase inhibitors” (Roche Palo Alto LLC, priority 2005, dated 2009).

One may read the melting point as the temperature, or range, at which the solid turns liquid. The term IC50 denotes the midpoint of a concentration-inhibition curve.

The structures appear in SMILES notation.

T1 sequence (Q16539 whole entry): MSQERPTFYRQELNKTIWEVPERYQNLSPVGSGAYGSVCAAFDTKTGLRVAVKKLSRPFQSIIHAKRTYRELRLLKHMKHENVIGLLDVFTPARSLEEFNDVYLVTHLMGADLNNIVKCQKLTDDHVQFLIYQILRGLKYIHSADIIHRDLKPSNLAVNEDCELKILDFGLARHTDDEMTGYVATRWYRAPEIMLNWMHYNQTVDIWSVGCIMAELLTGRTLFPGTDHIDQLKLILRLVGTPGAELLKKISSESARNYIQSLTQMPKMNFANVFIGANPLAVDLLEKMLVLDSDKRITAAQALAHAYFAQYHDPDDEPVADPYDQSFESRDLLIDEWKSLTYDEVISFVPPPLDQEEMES

Tested on in one series: not given
Assay: not given
Conditions: not given
`CC(C)Nc1n[nH]c2nc(Oc3ccc(F)cc3F)ncc12` [Table 1 #1, [6-(2,4-Difluoro-phenoxy)-1H-pyrazolo[3,4-d]pyrimidin-3-yl]-isopropyl-amine] came in with a melting point of 211.3 to 214.4 °C.

`O=C(Nc1n[nH]c2nc(Oc3ccc(F)cc3F)ncc12)OCc1ccccc1` [Table 1 #42, [6-(2,4-Difluoro-phenoxy)-1H-pyrazolo[3,4-d]pyrimidin-3-yl]-carbamic acid benzyl ester]: the melting point was in the range of 270.1 to 272 °C.

As for `OC[C@H](O)COc1cc(Oc2ccc(F)cc2F)cc2[nH]nc(-c3ccccc3Cl)c12` (stereo in doubt) [Table 2 #1, 3-[3-(2-Chloro-phenyl)-6-(2,4-difluoro-phenoxy)-1H-indazol-4-yloxy]-propane-1,2-diol], the melting point fell in the range of 93.3 to 94.6 °C.

On to `CCS(=O)(=O)Nc1n[nH]c2nc(Oc3ccc(F)cc3F)ncc12` [Table 1 #14, Ethanesulfonic acid [6-(2,4-difluoro-phenoxy)-1H-pyrazolo[3,4-d]pyrimidin-3-yl]-amide], for which the melting point is 226 to 226.9 °C.

As to `O=C(Nc1n[nH]c2nc(Oc3ccc(F)cc3F)ncc12)C1CCCC1` [Table 1 #38, Cyclopentanecarboxylic acid [6-(2,4-difluoro-phenoxy)-1H-pyrazolo[3,4-d]pyrimidin-3-yl]-amide], the melting point lay in the range of 206.3 to 207.51 °C.

A further series has as its target T1, p38 MAP kinase (Homo sapiens, UniProt Q16539).
T1 construct: made in house; host or cells: E. coli (co-expressed with SEK-1 and MEKK)
As to the kind of experiment: p38 (MAP) kinase in vitro assay (transfer of γ-phosphate from γ-33P-ATP to Myelin Basic Protein). It is filed as biochemical. As to conditions: phosphorylated recombinant p38 MAP kinase, MBP substrate, 30° C. How it is done: This example illustrates a p38 (MAP) kinase in vitro assay useful for evaluating the compounds of the invention.
The p38 MAP kinase inhibitory activity of compounds of this invention in vitro was determined by measuring the transfer of the γ-phosphate from γ-^33P-ATP by p-38 kinase to Myelin Basic Protein (MBP), using a minor modification of the method described in Ahn, et al., J. Biol. Chem. 266:4220-4227 (1991).
The phosphorylated form of the recombinant p38 MAP kinase was co-expressed with SEK-1 and MEKK in E. Coli (see, Khokhlatchev, et al., J. Biol. Chem. 272:11057-11062 (1997)) and then purified by affinity chromatography using a Nickel column.
The phosphorylated p38 MAP kinase was diluted in kinase buffer (20 mM 3-(N-morpholino)propanesulfonic acid, pH 7.2, 25 mM β-glycerol phosphate, 5 mM ethylene glycol-bis(beta-aminoethyl ether)-N,N,N′,N′-tetraacetic acid, 1 mM sodium ortho-vanadate, 1 mM dithiothreitol, 40 mM magnesium chloride). Test compound dissolved in DMSO or only DMSO (control) was added and the samples were incubated for 10 min at 30° C. The kinase reaction was initiated by the addition of a substrate cocktail containing MBP and γ-^33P-ATP. […] The phosphorylated MBP was then separated from the residual γ-^33P-ATP using a phosphocellulose membrane (Millipore, Bedfrod, Mass.) and quantitated using a scintillation counter (Packard, Meriden, Conn.).
Take `OC[C@H](O)CNc1cc(Oc2ccc(F)cc2F)cc2[nH]nc(-c3ccccc3Cl)c12` (stereo in doubt) [3-[3-(2-Chloro-phenyl)-6-(2,4-difluoro-phenoxy)-1H-indazol-4-ylamino]-propane-1,2-diol]: the half-inhibitory concentration (IC50) is around 0.004 µM.

Consider `O=C(Nc1n[nH]c2nc(Oc3ccc(F)cc3F)ncc12)c1ccccc1Br` [2-Bromo-N-[6-(2,4-difluoro-phenoxy)-1H-pyrazolo[3,4-d]pyrimidin-3-yl]-benzamide], for which the IC50 was around 0.016 µM.
